Molecules are shown by their SMILES.

In assay [1] the target is Melatonin receptor type 1A (Homo sapiens, UniProt P48039). Kind of assay: Binding affinity to human MT1 receptor expressed in CHO cells assessed as inhibition constant by HTRF method. A general note: TR-FRET usually uses a lanthanide donor and a delayed reading to cut background.
In assay [2] the target is T1, Melatonin receptor type 1B (Homo sapiens, UniProt P49286).
T1 sequence (P49286 whole entry): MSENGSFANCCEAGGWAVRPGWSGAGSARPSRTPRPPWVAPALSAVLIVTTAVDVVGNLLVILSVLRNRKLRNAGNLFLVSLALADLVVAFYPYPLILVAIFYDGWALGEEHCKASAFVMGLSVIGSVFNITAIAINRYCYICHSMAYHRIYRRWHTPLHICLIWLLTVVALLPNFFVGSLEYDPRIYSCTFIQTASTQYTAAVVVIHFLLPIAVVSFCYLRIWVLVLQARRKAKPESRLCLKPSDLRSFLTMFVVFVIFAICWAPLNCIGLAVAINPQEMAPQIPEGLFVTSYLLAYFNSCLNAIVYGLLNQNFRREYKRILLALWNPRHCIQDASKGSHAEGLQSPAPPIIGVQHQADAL
Kind of assay: Binding affinity to human MT2 receptor expressed in CHO cells assessed as inhibition constant by HTRF method.

Chain of Melatonin receptor type 1A (P48039 whole entry): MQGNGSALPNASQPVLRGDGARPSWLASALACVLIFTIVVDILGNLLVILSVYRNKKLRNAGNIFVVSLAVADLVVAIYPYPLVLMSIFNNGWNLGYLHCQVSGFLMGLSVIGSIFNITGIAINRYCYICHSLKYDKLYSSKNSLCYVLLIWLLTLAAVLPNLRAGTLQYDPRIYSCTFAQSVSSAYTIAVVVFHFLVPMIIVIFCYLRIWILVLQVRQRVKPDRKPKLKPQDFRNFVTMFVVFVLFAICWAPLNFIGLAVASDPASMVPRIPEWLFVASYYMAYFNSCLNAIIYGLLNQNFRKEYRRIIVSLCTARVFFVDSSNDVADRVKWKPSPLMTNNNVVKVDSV

On to `CCCn1c(NC(=O)Cc2coc3cc(OC)ccc23)nc2ccccc21` [Name not given], for which the inhibition constant Ki (as a rule, the dissociation constant of the complex between target and ligand, obtained from inhibition or displacement) in assay [1] stood at 36 nM.

Turning to `N#CN1CC[C@@H](NC(=O)c2ccc(-c3cnc4nccn4c3)cc2F)C1` [Name not given], the Ki in assay [2] stood at 36 nM.

Source of the values: BindingDB's records for PubMed 37866336 (The First Affiliated Hospital of China Medical University).
